Assay results reported in US6545053B1, “Tricyclic compounds and drug compositions containing same” (Asahi Kasei Kogyo Kabushiki Kaisha, priority 1996, dated 2003).
Counter-ions that a name gives are not always drawn. Like-named read-outs stand apart in the source and are kept apart here.

Target: T1, human β3 (Homo sapiens, UniProt P13945)
T1 construct: And then full length of human β3 gene was cloned using this fragment as a probe; expressed in transfected cells; host or cells: CHO cells (Chinese hamster ovary), pcDNA3 vector
Test: Human β3-agonist activity (cAMP in CHO cells transfected with human β3 gene)
Assay type: cell-based
Conditions: for Emax: CHO, read-out: Intrinsic activity (%)
Method: Human β3-agonist Activity
Human β3-agonist activity was examined using CHO cells (chinese hamster ovarian cells) to which pcDNA3 (in vitrogen) cells inserted human β3 gene was transfected. Human β3 fragment was obtained by PCR using human fat tissue cDNA (supplied from Clontech) with a β3 primer [Krief et al, J. Clin. Invest.
The cells were cultured in a HAM F-12 medium containing 10% of fetal bovine serum, 400 μg/ml of Geneticin (Gibco BRL). 100 U/ml penicillin and 100 μg/ml streptomycin. 5×10^5 cells were placed on a 6-well plate and cultured for 24 hours, after which the medium was changed to a HAM F-12 medium without serum and was kept for 2 hours. Each test compound was first dissolved in DMSO, and then diluted with a HAM F-12 medium containing 1 mM isobutylmethyl xanthine and 1 mM ascorbic acid. A 10-fold dilution in the range of 10^−5 to 10^−12 M was added into the cell.
After culturing for 30 minutes, culture medium was withdrawn, 0.5 ml of 1 N NaOH was added and was kept for 20 minutes. And then 0.5 ml of 1 N acetic acid was added with subsequent agitation and centrifugation. Finally the concentration of cAMP were analyzed using cAMP EIA KIT (Cayman). […] Isoprotelenol was purchased from Research Biochimicals International.

[1] = cAMP, CHO cells with human β3, read-out: ED50 (the source's name)

T1 sequence (P13945 whole entry, the tested form may be a part): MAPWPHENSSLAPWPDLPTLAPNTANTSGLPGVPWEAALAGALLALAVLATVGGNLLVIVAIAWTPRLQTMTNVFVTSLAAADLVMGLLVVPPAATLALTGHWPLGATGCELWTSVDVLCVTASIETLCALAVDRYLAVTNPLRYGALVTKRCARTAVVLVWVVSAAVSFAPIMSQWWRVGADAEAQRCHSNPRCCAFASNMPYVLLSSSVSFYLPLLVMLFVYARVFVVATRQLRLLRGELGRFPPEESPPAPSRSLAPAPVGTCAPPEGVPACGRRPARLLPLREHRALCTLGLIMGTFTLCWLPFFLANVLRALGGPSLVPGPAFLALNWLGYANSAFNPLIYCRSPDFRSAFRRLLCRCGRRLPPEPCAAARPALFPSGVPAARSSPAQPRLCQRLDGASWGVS

EC50 [1] [nM] | Intrinsic activity (%) (relative activity for isoproterenol, cAMP, CHO cells with human β3) | Structure (SMILES) | EC50 [nM] | Emax [%]
– | – | CS(=O)(=O)Nc1cc(C(O)CNCCOc2ccc3c(c2)[nH]c2ccccc23)ccc1OCc1ccccc1 (racemic) [Example 1, (±)-N-[5-[2-[2-(9H-Carbazol-2-yloxy)ethylamino]-1-hydroxyethyl]-2-benzyloxyphenyl]methanesulfonamide Hydrochloride] | 340 | 80
– | – | CS(=O)(=O)Nc1cc(C(O)CNCCOc2ccc3c(c2)[nH]c2ccccc23)ccc1Cl (racemic) [Example 6, (±)-N-[5-[2-[2-(9H-Carbazol-2-yloxy)ethylamino]-1-hydroxyethyl]-2-chlorophenyl]methanesulfonamide Hydrochloride] | 33 | 119
– | – | CS(=O)(=O)Nc1cc(C(O)CNCCOc2ccc3c(c2)[nH]c2ccccc23)ccc1N (racemic) [Example 82, (±)-N-[5-[2-[2-(9H-Carbazol-2-yloxy)ethylamino]-1-hydroxyethyl]-2-aminophenyl]methanesulfonamide Hydrochloride] | 2800 | 130
– | – | CN(C)S(=O)(=O)Nc1cc([C@H](O)CNCCOc2ccc3c(c2)[nH]c2ccccc23)ccc1O [Example 74, (S)-N′-[5-[2-[2-(9H-Carbazol-2-yloxy)ethylamino]-1-hydroxyethyl]-2-hydroxyphenyl]-N,N-dimethylsulfamide Hydrochloride] | 0.74 | 114
58 | – | CS(=O)(=O)Nc1cc(C(O)CNCCOc2ccc3c(c2)[nH]c2ccccc23)ccc1CO (racemic) [Example 84, (±)-N-[5-[2-[2-(9H-Carbazol-2-yloxy)ethylamino]-1-hydroxyethyl]-2-(hydroxymethyl)phenyl]methanesulfonamide] | – | 71
– | – | CS(=O)(=O)Nc1cc([C@H](O)CNCCOc2ccc3c(c2)[nH]c2ccccc23)ccc1O [Example 13, (S)-N-[5-[2-[2-(9H-Carbazol-2-yloxy)ethylamino]-1-hydroxyethyl]-2-hydroxyphenyl]methanesulfonamide Hydrochloride] | 2.7 | 110
– | – | CS(=O)(=O)Nc1cc(C(O)CNCCOc2ccc3c(c2)oc2ccccc23)ccc1F (racemic) [Example 55, (±)-N-[5-[2-[2-(Dibenzofuran-3-yloxy)ethylamino]-1-hydroxyethyl]2-fluorophenyl]methanesulfonamide Hydrochloride] | 230 | 76
– | – | COC(CNCCOc1ccc2c(c1)[nH]c1ccccc12)c1ccc(O)c(NS(C)(=O)=O)c1 (racemic) [Example 90, (±)-N-[5-[2-[2-(9H-Carbazol-2-yloxy)ethylamino]-1-methoxyethyl]-2-hydroxyphenyl]methanesulfonamide Hydrochloride] | 190 | 102
26 | – | CC(COc1ccc2c(c1)[nH]c1ccccc12)NCC(O)c1cccc(NS(C)(=O)=O)c1 (racemic) [Example 11, (±)-N-[3-[2-[[1-(9H-Carbazol-2-yloxy)propan-2R-yl]amino]-1-hydroxyethyl]phenyl]methanesulfonamide Hydrochloride] | – | 95
56 | – | CS(=O)(=O)Nc1cc(C(O)CNCCOc2ccc3c(c2)[nH]c2ccccc23)ccc1Br (racemic) [Example 85, (±)-N-[5-[2-[2-(9H-Carbazol-2-yloxy)ethylamino]-1-hydroxyethyl]-2-bromophenyl]methanesulfonamide] | – | 70
350 | – | CN(C)S(=O)(=O)c1cc(C(O)CNCCOc2ccc3c(c2)[nH]c2ccccc23)ccc1O (racemic) [Example 89, (±)-N,N-Dimethyl-(5-[2-[2-(9H-carbazol-2-yloxy)ethylamino]-1-hydroxyethyl]-2-hydroxy]benzenesulfonamide Hydrochloride] | – | 73
– | – | CS(=O)(=O)Nc1cc([C@@H](O)CNCCOc2ccc3c(c2)[nH]c2ccccc23)ccc1F [Example 77, (R)-N-[5-[2-[2-(9H-Carbazol-2-yloxy)ethylamino]-1-hydroxyethyl]-2-fluorophenyl]methanesulfonamide Hydrochloride] | 21 | 100
150 | – | CC(=O)Nc1ccc2c(c1)Cc1cc(OCCNCC(O)c3cccc(NS(C)(=O)=O)c3)ccc1-2 (racemic) [Example 10, (±)-N-[3-[2-[2-(9H-7-Acetylaminofluoren-2-yloxy)ethylamino]-1-hydroxyethyl]phenyl]methanesulfonamide Hydrochloride] | – | 47
740 | – | CN(Cc1ccccc1)S(=O)(=O)c1cc(C(O)CNCCOc2ccc3c(c2)[nH]c2ccccc23)ccc1O (racemic) [Example 83, (±)-N-Methyl-N-benzyl-[5-[2-[2-(9H-carbazol-2-yloxy)ethylamino]-1-hydroxyethyl]-2-hydroxy]benzenesulfonamide Hydrochloride] | – | 79
– | – | O=CNc1cccc(C(O)CNCCOc2ccc3c(c2)[nH]c2ccccc23)c1 (racemic) [Example 17, (±)-N-[3-[2-[2-(9H-Carbazol-2-yloxy)ethylamino]-1-hydroxyethyl]phenyl]formamide Hydrochloride] | 910 | 53
– | – | CN(Cc1ccccc1)S(=O)(=O)Nc1cc(C(O)CNCCOc2ccc3c(c2)[nH]c2ccccc23)ccc1O (racemic) [Example 87, (±)-N′-[5-[2-[2-(9H-Carbazol-2-yloxy)ethylamino]-1-hydroxyethyl]-2-hydroxyphenyl]-N-methyl-N-benzylsulfamide Hydrochloride] | 84 | 138
– | – | CN(C)S(=O)(=O)Nc1cc([C@@H](O)CNCCOc2ccc3c(c2)[nH]c2ccccc23)ccc1O [Example 73, (R)-N′-[5-[2-[2-(9H-Carbazol-2-yloxy)ethylamino]-1-hydroxyethyl]-2-hydroxyphenyl]-N,N-dimethylsulfamide Hydrochloride] | 0.038 | 102
32 | – | O=[N+]([O-])c1cc(C(O)CNCCOc2ccc3c(c2)[nH]c2ccccc23)ccc1O (racemic) [Example 18, (±)-2-[N-[2-(9H-Carbazol-2-yloxy)ethyl]amino]-1-(4-hydroxy-3-nitrophenyl)]ethanol Hydrochloride] | – | 90
– | – | CS(=O)(=O)Nc1cc([C@H](O)CNCCOc2ccc3c(c2)[nH]c2ccccc23)ccc1Cl [Example 80, (S)-N-[5-[2-[2-(9H-Carbazol-2-yloxy)ethylamino]-1-hydroxyethyl]-2-chlorophenyl]methanesulfonamide Hydrochloride] | 57 | 110
– | – | CS(=O)(=O)Nc1cc([C@@H](O)CNCCOc2ccc3c(c2)[nH]c2ccccc23)ccc1O [Example 12, (R)-N-[5-[2-[2-(9H-Carbazol-2-yloxy)ethylamino]-1-hydroxyethyl]-2-hydroxyphenyl]methanesulfonamide Hydrochloride] | 0.14 | 113
– | – | CNS(=O)(=O)c1cccc(C(O)CNCCOc2ccc3c(c2)[nH]c2ccccc23)c1 (racemic) [Example 16, (±)-N-methyl-3-[2-[2-(9H-Carbazol-2-yloxy)ethylamino]-1-hydroxyethyl]benzenesulfonamide Hydrochloride] | 30 | 99
38 | 92 | CC(=O)Nc1ccc2[nH]c3cc(OCCNCC(O)c4cccc(NS(C)(=O)=O)c4)ccc3c2c1.Cl (racemic) [Example 68, (±)-N-[3-[2-[2-(9H-6-(Acetylamino)carbazol-2-yloxy]ethylamino]-1-hydroxyethyl]phenyl]methanesulfonamide Hydrochloride] | – | –
– | – | CN(C)S(=O)(=O)Nc1cc([C@@H](O)CNCCOc2ccc3c(c2)oc2ccccc23)ccc1O [Example 75, (R)-N′-[5-[2-[2-(Dibenzofuran-3-yloxy)ethylamino]-1-hydroxyethyl]-2-hydroxyphenyl]-N,N-dimethylsulfamide Hydrochloride] | 88 | 105
– | – | OC(CNCCOc1ccc2oc3ccccc3c2c1)c1ccccc1 (racemic) [Example 34, (±)-2-[N-[2-(Dibenzofuran-2-yloxy)ethyl]amino]-1-phenyl ethanol Hydrochloride] | 4600 | 37
– | – | CS(=O)(=O)Nc1cc(O)cc(C(O)CNCCOc2ccc3c(c2)[nH]c2ccccc23)c1 (racemic) [Example 62, (±)-N-[5-[2-[2-(9H-Carbazol-2-yloxy)ethylamino]-1-hydroxyethyl]-3-hydroxyphenyl]methanesulfonamide Hydrochloride] | 210 | 106
2000 | – | Nc1cccc(C(O)CNCCOc2ccc3c(c2)[nH]c2ccccc23)c1 (racemic) [Example 47, (±)2-[N-[2-(9H-Carbazol-2-yloxy)ethyl]amino]-1-(3-aminophenyl)]ethanol Hydrochloride] | – | 86
520 | – | C[C@H](COc1ccc2c(c1)[nH]c1ccccc12)NC[C@H](O)c1ccccc1 [Example 35, (R,R)-2-[N-[1-(9H-Carbazol-2-yloxy)propan-2-yl]amino]-1-phenylmethanol Hydrochloride] | – | 90
– | – | Oc1ccc(C(O)CNCCOc2ccc3c(c2)[nH]c2ccccc23)cc1 (racemic) [Example 29, (±)-2-[N-[2-(9H-Carbazol-2-yloxy)ethyl]amino]-1-(4-hydroxyphenyl)ethanol Hydrochloride] | 250 | 120
